The NIST ThermoML archive (doi:10.1021/je060271a)
± gives the expanded uncertainty stated by the source.

Conditions: Liquid, Vibrating tube method

CCCCCC(=O)OCC(COC(=O)CCCCC)(COC(=O)CCCCC)COC(=O)CCCCC [pentaerythritol tetrahexanoate]
Conditions | mass density [kg/m3]
323.16 K, 30799 kPa | 992.6 ± 1.2
323.16 K, 30820 kPa | 992.6 ± 1.2
323.16 K, 30845 kPa | 992.6 ± 1.2
323.16 K, 30870 kPa | 992.7 ± 1.2
323.16 K, 30895 kPa | 992.6 ± 1.2
323.16 K, 30916 kPa | 992.5 ± 1.2
323.16 K, 30942 kPa | 992.7 ± 1.2
323.16 K, 30968 kPa | 992.6 ± 1.2
323.16 K, 30994 kPa | 992.7 ± 1.2
323.16 K, 31020 kPa | 992.9 ± 1.2
323.16 K, 31046 kPa | 992.7 ± 1.2
323.16 K, 31070 kPa | 992.8 ± 1.2
323.16 K, 31096 kPa | 992.8 ± 1.2
323.16 K, 31122 kPa | 992.8 ± 1.2
323.16 K, 31139 kPa | 992.8 ± 1.2
323.16 K, 31159 kPa | 992.8 ± 1.2
323.16 K, 31180 kPa | 992.8 ± 1.2
323.16 K, 31200 kPa | 992.8 ± 1.2
323.16 K, 31217 kPa | 992.9 ± 1.2
323.16 K, 31237 kPa | 992.9 ± 1.2
323.16 K, 31258 kPa | 992.9 ± 1.2
323.16 K, 31278 kPa | 993 ± 1.2
323.16 K, 31295 kPa | 992.7 ± 1.2
323.16 K, 31315 kPa | 993 ± 1.2
323.16 K, 31335 kPa | 992.9 ± 1.2
323.16 K, 31356 kPa | 993 ± 1.2
323.16 K, 31378 kPa | 992.9 ± 1.2
323.16 K, 31395 kPa | 992.9 ± 1.2
323.16 K, 31412 kPa | 993 ± 1.2
323.16 K, 31433 kPa | 993.1 ± 1.2
323.16 K, 31554 kPa | 993.1 ± 1.2
323.16 K, 31575 kPa | 993.1 ± 1.2
323.16 K, 31592 kPa | 993.1 ± 1.2
323.16 K, 31613 kPa | 993 ± 1.2
323.16 K, 31635 kPa | 993 ± 1.2
323.16 K, 31777 kPa | 993.1 ± 1.2
323.16 K, 31798 kPa | 993.2 ± 1.2
323.16 K, 31820 kPa | 993.2 ± 1.2
323.16 K, 31838 kPa | 993.2 ± 1.2
323.16 K, 31860 kPa | 993.2 ± 1.2
323.16 K, 31882 kPa | 993.2 ± 1.2
323.16 K, 31905 kPa | 993.3 ± 1.2
323.16 K, 31927 kPa | 993.3 ± 1.2
323.16 K, 31950 kPa | 993.2 ± 1.2
323.16 K, 31973 kPa | 993.4 ± 1.2
323.16 K, 31996 kPa | 993.3 ± 1.2
323.16 K, 32016 kPa | 993.3 ± 1.2
323.16 K, 32032 kPa | 993.4 ± 1.2
323.16 K, 32048 kPa | 993.4 ± 1.2
323.16 K, 32064 kPa | 993.3 ± 1.2
323.16 K, 32081 kPa | 993.4 ± 1.2
323.16 K, 32097 kPa | 993.3 ± 1.2
323.16 K, 32114 kPa | 993.3 ± 1.2
323.16 K, 32132 kPa | 993.4 ± 1.2
323.16 K, 32149 kPa | 993.3 ± 1.2
323.16 K, 32165 kPa | 993.4 ± 1.2
323.16 K, 32183 kPa | 993.4 ± 1.2
323.16 K, 32202 kPa | 993.5 ± 1.2
323.16 K, 32221 kPa | 993.5 ± 1.2
323.16 K, 32240 kPa | 993.4 ± 1.2
323.16 K, 32260 kPa | 993.5 ± 1.2
323.16 K, 32366 kPa | 993.4 ± 1.2
323.16 K, 32374 kPa | 993.5 ± 1.2
323.16 K, 32380 kPa | 993.5 ± 1.2
323.16 K, 32383 kPa | 993.5 ± 1.2
323.17 K, 1378.9 kPa | 973.7 ± 1.2
323.17 K, 2060 kPa | 974 ± 1.2
323.17 K, 2070.1 kPa | 974.2 ± 1.2
323.17 K, 15528 kPa | 983.3 ± 1.2
323.17 K, 15553 kPa | 983.3 ± 1.2
323.17 K, 15582 kPa | 983.4 ± 1.2
323.17 K, 15606 kPa | 983.4 ± 1.2
323.17 K, 15845 kPa | 983.4 ± 1.2
323.17 K, 15865 kPa | 983.5 ± 1.2
323.17 K, 15889 kPa | 983.4 ± 1.2
323.17 K, 15909 kPa | 983.5 ± 1.2
323.17 K, 15932 kPa | 983.5 ± 1.2
323.17 K, 15952 kPa | 983.3 ± 1.2
323.17 K, 15976 kPa | 983.5 ± 1.2
323.17 K, 16001 kPa | 983.4 ± 1.2
323.17 K, 16021 kPa | 983.6 ± 1.2
323.17 K, 16045 kPa | 983.5 ± 1.2
323.17 K, 16069 kPa | 983.6 ± 1.2
323.17 K, 16089 kPa | 983.6 ± 1.2
323.17 K, 16114 kPa | 983.7 ± 1.2
323.17 K, 16135 kPa | 983.7 ± 1.2
323.17 K, 16160 kPa | 983.6 ± 1.2
323.17 K, 16308 kPa | 983.8 ± 1.2
323.17 K, 16329 kPa | 983.7 ± 1.2
323.17 K, 16337 kPa | 983.7 ± 1.2
323.17 K, 16338 kPa | 983.8 ± 1.2
323.17 K, 16340 kPa | 983.8 ± 1.2
323.17 K, 19154 kPa | 985.4 ± 1.2
323.17 K, 19182 kPa | 985.6 ± 1.2
323.17 K, 19210 kPa | 985.5 ± 1.2
323.17 K, 19238 kPa | 985.5 ± 1.2
323.17 K, 19267 kPa | 985.7 ± 1.2
323.17 K, 19296 kPa | 985.6 ± 1.2
323.17 K, 19320 kPa | 985.7 ± 1.2
323.17 K, 19350 kPa | 985.6 ± 1.2
323.17 K, 20368 kPa | 986.3 ± 1.2
323.17 K, 20425 kPa | 986.4 ± 1.2
323.17 K, 22257 kPa | 987.5 ± 1.2
323.17 K, 22284 kPa | 987.5 ± 1.2
323.17 K, 22311 kPa | 987.5 ± 1.2
323.17 K, 22338 kPa | 987.6 ± 1.2
323.17 K, 22361 kPa | 987.6 ± 1.2
323.17 K, 22388 kPa | 987.5 ± 1.2
323.17 K, 22416 kPa | 987.7 ± 1.2
323.17 K, 22443 kPa | 987.6 ± 1.2
323.17 K, 22466 kPa | 987.7 ± 1.2
323.17 K, 22493 kPa | 987.7 ± 1.2
323.17 K, 22520 kPa | 987.5 ± 1.2
323.17 K, 25533 kPa | 989.4 ± 1.2
323.17 K, 25562 kPa | 989.5 ± 1.2
323.17 K, 25592 kPa | 989.5 ± 1.2
323.17 K, 25621 kPa | 989.5 ± 1.2
323.17 K, 25651 kPa | 989.4 ± 1.2
323.17 K, 25676 kPa | 989.5 ± 1.2
323.17 K, 25737 kPa | 989.6 ± 1.2
323.17 K, 25767 kPa | 989.6 ± 1.2
323.17 K, 25792 kPa | 989.7 ± 1.2
323.17 K, 25823 kPa | 989.7 ± 1.2
323.17 K, 25853 kPa | 989.7 ± 1.2
323.17 K, 25884 kPa | 989.6 ± 1.2
323.17 K, 25909 kPa | 989.8 ± 1.2
323.17 K, 25940 kPa | 989.8 ± 1.2
323.17 K, 25972 kPa | 989.8 ± 1.2
323.17 K, 26003 kPa | 989.7 ± 1.2
323.17 K, 26033 kPa | 989.7 ± 1.2
323.17 K, 26762 kPa | 990.3 ± 1.2
323.17 K, 26791 kPa | 990.3 ± 1.2
323.17 K, 26815 kPa | 990.1 ± 1.2
323.17 K, 26845 kPa | 990.3 ± 1.2
323.17 K, 26872 kPa | 990.3 ± 1.2
323.17 K, 26901 kPa | 990.4 ± 1.2
323.17 K, 26930 kPa | 990.4 ± 1.2
323.17 K, 26959 kPa | 990.3 ± 1.2
323.17 K, 26984 kPa | 990.3 ± 1.2
323.17 K, 27013 kPa | 990.3 ± 1.2
323.17 K, 27043 kPa | 990.5 ± 1.2
323.17 K, 27073 kPa | 990.4 ± 1.2
323.17 K, 27102 kPa | 990.4 ± 1.2
323.17 K, 27127 kPa | 990.4 ± 1.2
323.17 K, 27157 kPa | 990.4 ± 1.2
